# Data as given in patent US6872750B2, “Modulating angiogenesis” (Regents of the University of California, priority 2000, dated 2005).
# Legend:
# Kuz = assay: Inhibition of angiogenesis by Kuz inhibitors in several model systems
# Protocol: The presence of Kuz and its activity is assayed by ELISA and Kuz-specific protease activity prior to or subsequent to the measure of angiogenesis.
# HUVEC = HUVEC formation of vascular-like structures on Matrigel; assay type: cell-based, human; settings: HUVEC on growth factor-reduced Matrigel, 8-12 h
# Protocol: The formation of vascular-like structures by HUVEC is assessed on the basement membrane matrix preparation, growth factor-reduced Matrigel (Becton Dickinson, Bedford, Mass.), as described in Kureishi Y, et al. Nat Med 2000 September;6(9):1004-10. Two-well chamber slides are coated with Matrigel (10 mg/ml) according to the manufacturer's instructions. HUVEC are seeded on coated plates at 4-5×10^4 cells/well in EBM and incubated at 37° C. for 60 minutes. The media are supplemented with the agents (metalloprotease domain of human Kuz, Kuz inhibitors, Kuz antibodies, VEGF, etc.) and incubated at 37° C. for 8-12 h. Tube formation image is observed using an inverted phase contrast microscope (Nikon Diaphot). Images are captured with a video graphic system (DEI-750 CE Digital Output Camera, Optronics, Goleta, Calif.). The degree of tube formation is quantified by measuring the length of tubes in random fields from each well using the National Institutes of Health (NIH) Image Program.
Molecule,inhibition of angiogenesis (Kuz),formation of capillary-like tubes (HUVEC)
"CNC(=O)[C@H](Cc1c[nH]c2ccccc12)NC(=O)[C@@H](CC(=O)NO)CC(C)C [GM6001, NHOHCOCH2CH(1-Bu)CO-Trp-NHMe]",inhibit angiogenesis,
"CC(C)CC(CC(=O)NO)C(=O)N[C@@H](C)C(=O)NCCN (stereo partly drawn) [IC-3, N-{D,L-[2-(hydroxyaminocarbonyl)methyl]-4-methyl-pentanoyl}-L-alanine, 2-aminoethyl amide]",inhibit angiogenesis,
"TIMP-1: natural MMP inhibitor, tissue inhibitor of MMPs",inhibit angiogenesis,
VEGF,,promotes the formation of capillary-like tubes
